What was measured:
Format in all cases: cell-based
Cat OR5A1 = test: CNG chAMPion assay, OR_9 (OR5A1), cat ortholog; settings: cat OR5A1, phase 3
Method: chAMPion (CNG channel) assay. HEK293/CNG/nat-Clytin/RTP1 s endo cells were transiently transfected with plasmids encoding the respective OR and were seeded at 20,000 cells/well in 25 μL/well complete growth medium in poly-D-lysine coated black, clear-bottom 384 MTPs.
Data were analyzed with the Screenworks® software (Molecular Devices, version 4.0.0.30). Luminescence values (in RLU) were exported as maximum RLU between 10 s and 40 s. In addition to using raw values, the data were also normalized to background signals (wells containing buffer only) and expressed as “Fold change” (mean value (n=2)/mean value of buffer wells (n=2)). Data analysis and plotting of graphs was carried out using Excel (Microsoft) and GraphPad Prism (GraphPad Software, Inc.).

Human OR5A1 = molecular target: T1, Human OR5A1 (Homo sapiens, UniProt Q8NGJ0); test: CRE-NanoLuc luciferase assay, OR_9 (OR5A1), human ortholog; settings: human OR5A1, phase 3
T1 construct: expressed in transfected cells; host or cells: HEK293 PEAKrapid/RTP1s endo (reporter cell line A)
T1 sequence (Q8NGJ0 1-315): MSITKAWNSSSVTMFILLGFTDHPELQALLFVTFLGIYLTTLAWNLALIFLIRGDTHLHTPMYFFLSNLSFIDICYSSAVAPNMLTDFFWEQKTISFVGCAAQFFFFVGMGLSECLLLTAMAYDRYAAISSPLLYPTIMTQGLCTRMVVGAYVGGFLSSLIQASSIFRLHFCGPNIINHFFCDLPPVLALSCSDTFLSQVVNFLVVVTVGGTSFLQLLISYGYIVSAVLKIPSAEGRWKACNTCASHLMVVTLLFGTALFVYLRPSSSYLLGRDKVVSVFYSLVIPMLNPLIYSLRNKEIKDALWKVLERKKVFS

Dog OR5A1 = test: CNG chAMPion assay, OR_9 (OR5A1), dog ortholog; settings: dog OR5A1, phase 3
From the text: This example refers to the functional expression of different feline and canine olfactory receptors (ORs). 20 OR sequences were selected, where 10 sequences have feline origins and the remaining 10 have canine origins. These ORs were subcloned into a modified expression vector suitable for the transient, functional expression of ORs. The transiently expressed receptors were then stimulated with various concentrations of different odorants aiming to deorphanize the feline and canine ORs. […] Functional expression of the different OR sets were transient in reporter cell line A or B. The transiently transfected ORs were stimulated with 3 concentrations (n=4) of different odorants (at least 3).
chAMPion (CNG channel) assay. […]
Twenty-four hours later, the cell medium was removed manually and cells were incubated in 20 μL/well coelenterazine (11 μM) in Tyrode buffer with 0 mM calcium for 3.5 h at 37° C. Plates were then read in a luminescence plate reader (FLIPR^TETRA, Molecular Devices) with the following camera settings: exposure time: 0.533 s, maximum gain. Luminescence was recorded for 1 min after addition of 10 μL/well compounds (3× solutions prepared in Tyrode buffer with 0 mM calcium), followed by an incubation period of 30 min at 37° C. Luminescence was again recorded for 1 min after addition of 20 μL/well Tyrode buffer with 10 mM CaCl2. […]

Compound | receptor response (dose-response, fold change) (Cat OR5A1) | receptor response (dose-response, fold change) (Human OR5A1) | EC50 (rank among the four compounds) (Dog OR5A1) | Emax (rank among the four compounds) (Dog OR5A1)
CCCCCOC(C)=O [amyl acetate, Amyl acetate] | weaker responses |  |  | 
CC(C)=CCCC(C)=CC=O [citral, Citral] | no response |  |  | 
CC(=O)/C=C/C1=C(C)CCCC1(C)C [β-ionone, beta-Ionone] | strong response | responds | lowest EC50 | highest Emax
